Values after ≈ are worked out from the molar mass of the structure shown. Where two headings read alike, the source gives them in different places.
How the values were obtained:
[1] = JC2 stability (degradation test) in Mueller Hinton broth by HPLC; type: physicochemical; conditions: 37 °C, read-out: half-life in Mueller Hinton media (MH t1/2) (converted)
Method: Degradation test: Blank sample was prepared with 20 µL Mueller Hinton broth (BD biosciences, US) diluted in 180 µL of 2 % DMSO in 1:1 (v/v) acetonitrile : water solution, and directly submitted to HPLC for evaluation. A 5 mM JC2 stock solution was prepared by diluting the 25 mM stock solution with DMSO. 4 µL of 5 mM […] solution was added into 196 µL of MH, and incubated at 37 °C for the whole course of evaluation. 20 µL of each incubated sample was taken at 0, 0.5, 1, 2, 4, 8, 16 hr, and were prepared in the same manner as the blank sample before submitting to HPLC.
Chromatography was performed on an Agilent 1200 series HPLC system that equipped with a vacuum degasser, a quaternary pump, a diode array and multiple wavelength detector SL, and a standard and preparative autosampler (Agilent Technologies, US). A Hyspersil GOLD^TM C-18 4.6 x 250 mm, 3 µm column was used for separation. A gradient elution method was used as the mobile phase by mixing solvent A (water, 0.1% formic Acid) and solvent B (acetonitrile, 0.1% formic acid). The time program for gradient elution is shown in Table A. The flow rate was set at 1.0 ml/min, and 20µl of sample was injected each time. The detector monitored absorption at 254, 215, 280 nm.
Chemstation Offline (Agilent Technologies, US) was used to analyze the data. […]

S. aureus UAMS-1 = experiment: Galleria mellonella model of S. aureus infection; type: in vivo; conditions: 10^4 CFU UAMS-1, single dose 100 mg·kg^−1 1 h post-infection, 16 h; DMSO 60%
Method: An overnight culture of S. aureus strain UAMS-1 was used to inoculate (1:100 dilution) 25 mL of fresh MH medium and growth at 37 °C on a rotary shaker at 225 rpm to exponential phase (~1 × 10^8 CFU mL^−1). Cultures were pelleted by centrifugation, washed with phosphate buffered saline (PBS), and re-suspended at ~1 × 10^7 CFU·mL^−1 in fresh PBS. G. mellonella larvae weighing 150–250 mg were inoculated with 5 µL of S. aureus into the last left proleg using a 10 µL Hamilton syringe. About 1 h after inoculation, one group of worms was treated with 2 µL DMSO as infected negative control; one group was treated with 2 µL JC2 compound at 100 mg/kg dose; another group was treated with 2 µL vancomycin at 100 mg/kg dose as standard-of-care comparison. Treatments were administered in the same manner as infection, except that each injection was in the next left proleg moving towards the head of the worm. […] In addition to the mock or compound treatment of infected larvae, a group of non-infected worm injected with DMSO or corresponding compounds were used to monitor the impact of physical trauma as well as observe toxicity associated with compound treatment.

S. aureus BAA-1708 = experiment: MIC against clinical strain BAA-1708; type: cell-based, Staphylococcus aureus; conditions: S. aureus clinical strain BAA-1708
S. aureus RnpA = target: T1, S. aureus RnpA (Staphylococcus aureus, UniProt P0A0H5); experiment: RnpA-mediated in vitro spa mRNA degradation assay; type: biochemical; conditions: read-out: Degradation IC50
T1 construct: hexahistidine (His6) (N); made in house; host or cells: E. coli BL21 (DE3), plasmid pEXP5-nt
T1 sequence (P0A0H5 1-117): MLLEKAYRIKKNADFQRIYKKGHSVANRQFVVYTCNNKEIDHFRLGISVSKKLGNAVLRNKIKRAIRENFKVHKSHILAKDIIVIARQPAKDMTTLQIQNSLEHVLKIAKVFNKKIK
Method: RnpA-mediated RNA degradation assays were performed as previously described. Briefly, 1 pmol of spa mRNA was incubated with 5 pmol RnpA at 37 °C for 30 min in reaction buffer (50 mM Tris-HCl pH 8.0, 2 mM NaCl, 2 mM MgCl2) in the absence or presence of the indicated compound (≤500 µM). The inhibitory effects of the test compounds were calculated using Biorad ImageLab densitometry software to measure the signal intensity of the spa band in the negative control (spa alone), positive control (RnpA + spa + DMSO), and experimental samples (RnpA + spa + test compound) separated on a 1.2% formaldehyde-agarose gel. Background signal from the positive control sample sometimes resulted due to incomplete degradation of transcripts. Thus, the signal intensity of the positive control was taken into account when calculating the percent inhibition. The raw signals from the positive (+RnpA) and negative (-RnpA) controls were converted into percentage, by normalizing the positive control (+RnpA) signal to 0% RnpA inhibition and the negative control (-RnpA) to 100% RnpA inhibition. Similarly, the raw signals from the test compounds were reported as percent RnpA inhibition using the following equation: [(experimental−positive control)/(negative control−positive control)] × 100. […] To assess IC50, % RnpA degradation inhibition was plotted against compound concentration; a linear best fit equation was generated and utilized to calculate the IC50.

HepG2 cells = experiment: MTT human cell cytotoxicity testing; type: cell-based; conditions: SAR figures; 4× MIC exposure for 24 h
Method: Human HepG2 hepatocytes were seeded in individual wells of a 96-well cell-culture treated microtiter plate at a concentration of 1 × 10^5 cells per well and incubated in Dulbecco’s Modified Eagle Medium (DMEM) supplemented with 10% fetal bovine serum at 37 °C with 5% carbon dioxide overnight. Cells were then treated with DMSO (negative control) or the indicated agent for 24 h. MTT Cell Proliferation Assay Kits were used to assess viability according to the manufacturer’s recommendations (American Type Culture Collection; Manassas, VA, USA).

CC1CCCCN1C(=O)Nc1cc(Cl)cc(Cl)c1 (stereo not drawn) [JC2]
half-life at 100 µM [1]: ~2 h | mortality rate of S. aureus infected worms (S. aureus UAMS-1): 30% | MIC (S. aureus BAA-1708): 1 µg/mL (≈ 3.48 µM) | MIC (S. aureus BAA-1708; Staphylococcus aureus, BAA1708, read-out: MIC): 1 µg/mL (≈ 3.48 µM) | IC50 (S. aureus RnpA): 180 µM | MTT = % HepG2 cell survival (HepG2 cells): 87%

From publication PMC6627331, “Identification of Small Molecule Inhibitors of Staphylococcus aureus RnpA” (Antibiotics, 2019)
